Results on 1 compound are retold here after patent US7582279B2, “Blood-pool carrier for lipophilic imaging agents” (The Board of Regents of the University of Michigan, priority 1994, dated 2009).

The assay relates to VX2 tumors. Nature of the assay: CT of hepatic VX2 tumors, co-administration study. Type of assay: in vivo, rabbits. The settings on record: VX2 rabbit. From the text: In a particularly advantageous embodiment of the invention, a hepatocyte-selective oil-in-water emulsion is co-administered with the blood-pool agent of the present invention. Liver-selective particulate agents (hepatocyte-selective or Kupffer cell-selective) clear rapidly from the blood and render the blood hypodense relative to surrounding liver tissue. It is very difficult to separate small tumors, which also appear as hypodense areas from small vasculature in the sub 5 mm size range. In order to compensate for this problem, DHOG-PEG (Example 1) and hepatocyte-selective DHOG-LE (Emulsion Example 6, non-radioactive form) were co-administered to rabbits bearing VX2 tumors.
Rabbits (mean weight 2.5 kg) were inoculated with VX2 carcinoma directly into the hepatic parenchyma to produce a total of 8 focal lesions (2-10 mm). Ten days later, the rabbits were scanned with multiple techniques including noncontrast, helical IV enhanced (600 mg I/kg iohexol), and 24 hours later using the iodinated microparticulate emulsion (200 mg I/kg). Tissue density measurements (HU) were made of liver, lesions, and blood (descending aorta). Tumor morphology was verified by gross pathologic examination.

[1] abbreviates: iohexol 600 mg I/kg, emulsion 200 mg I/kg.

As for `CC(=O)N(CC(O)CO)c1c(I)c(C(=O)NCC(O)CO)c(I)c(C(=O)NCC(O)CO)c1I` (stereo not drawn) [iohexol], the “lesion detection (sensitivity), Lesions < 1 cm” value came out at 49.3; the “lesion detection (sensitivity), Lesions > 1 cm” value turned out to be 97.6; the “lesion detection (sensitivity), Overall” value was determined as 67.6; the liver-to-lesion difference is given as 28.8. In addition, under setting [1], the “enhancement of liver tissue” value is “+66.8 HU” and the tumor enhancement result is recorded as “+40.1 HU”.
